Columns and labels:
Format in all cases: in vivo, human
[1] = Triangle test of taste modification of theobromine solution; settings: for taste: compared with theobromine reference; for % of panellists who detected a difference: eight panelists; for taste intensity: theobromine reference bitterness 5.0
Text: To investigate the influence of taste modification of (−)-catechin-8-C-β-D-glucopyranoside on theobromine in comparison to the aglycons (+)-catechin and (−)-epicatechin as well as further C-glycosides like apigenin-8-C-β-D-glucopyranoside (vitexin) and apigenin-6-C-β-D-glucopyranoside (isovitexin), theobromine (3 mmol/L) was spiked with different concentrations of (−)-catechin-8-C-β-D-glucopyranoside, (+)-catechin, (−)-epicatechin as well as apigenin-8-C-β-D-glucopyranoside (vitexin) and apigenin-6-C-β-D-glucopyranoside (isovitexin).

[2] = Sensory tasting in alkalized cocoa powder drink; settings: for sensory evaluation of bitterness versus control: 50 ppm added (ppm refer to 1 kg of water), 8 persons
Procedure: The modified product of example 6 was further compared to alkalized cocoa powder (5 g/200 ml)+50 ppm Epicat-6-C-Glc (ppm refer to 1 kg of water).
The modified product of example 6 was further compared to alkalized cocoa powder (5 g/200 ml)+50 ppm Cat-6,8-C-di-Glc (ppm refer to 1 kg of water).
The examples were repeated with the catechin and epicatechin galactosides and the same sensory results were obtained.

[3] = Sensory tasting in non-alkalized cocoa powder drink; settings: 50 ppm added
[4] = Sensory tasting in astringent dark chocolate; settings: 77 mg of 7.8% solution in propylene glycol per 20 g dark chocolate
Procedure: 77 mg of a solution of catechin-8-C-glucoside dissolved in propylene glycol (7.8%) was added to 20 g of molten dark chocolate with strong astringent taste characteristics. After solidification, the chocolate was tasted against a non-treated reference chocolate.
Food ingredients were prepared starting from green tea extract (5 g) or grape seed extract (5 g) by reaction with glucose (4 g) and 3% K2C03 in 100 ml of water. The reaction was done at 80° C. for exactly 20 min. The resulting flavour reaction mix was freeze-dried to obtain a dark red-brown mass which was then added to astringent tasting chocolate at various levels. In a first screening sensory tasting, the optimum level of addition was identified as 300 ppm.
Ingredients prepared from grape seed extract and tea extract in such a manner when added to dark chocolate at 330 ppm decreased the perceived sensory perception of astringency in the dark chocolate.

[5] = Sensory tasting against grape seed extract; settings: ca. 10 ppm added to 2000 ppm grape seed extract
[6] = Sensory tasting against pure theobromine; settings: ca. 10 ppm added to 600 ppm theobromine
Text: Theobromine (600 ppm)+ca. 10 ppm 8-C-glucosylated catechin.

Row | SMILES | taste ([1]; 2.2 μmol/L added) | % of panellists who detected a difference ([1]; 2.2 μmol/L added) [%] | taste intensity ([1]; 2.2 μmol/L added) | taste ([1]; 22.2 μmol/L added) | % of panellists who detected a difference ([1]; 22.2 μmol/L added) [%] | taste intensity ([1]; 22.2 μmol/L added) | taste ([1]; 222/L μmol/L added) | % of panellists who detected a difference ([1]; 222/L μmol/L added) [%] | taste intensity ([1]; 222/L μmol/L added) | sensory evaluation of bitterness versus control [2] | other results
1 | Oc1cc(O)c2c(c1)OC(c1ccc(O)c(O)c1)C(O)C2 (single isomer, unassigned; (-)) [(−)-epicatechin] | bitterness | 0 | 5.0 | more cocoa like | 50 | 5.0 | more cocoa like | 50 | bitterness (4.0) |  | 
2 | OCC1OC(c2c(O)c3c(c(C4OC(CO)C(O)C(O)C4O)c2O)OC(c2ccc(O)c(O)c2)C(O)C3)C(O)C(O)C1O (single isomer, unassigned; (-)) [Cat-6,8-C-di-Glc, (−)-cat-echin-6-C-8-C-β-D-diglucopyranoside] |  |  |  |  |  |  |  |  |  | lower maximum bitterness intensity than control, a flatter bitterness profile and a “softer” bitterness quality | 
3 | Oc1cc(O)c2c(c1)O[C@H](c1ccc(O)c(O)c1)[C@@H](O)C2 [(+)-catechin] | bitterness | 0 | 5.0 | more cocoa like | 50 | 5.0 | more cocoa like | 50 | bitterness (4.0) |  | 
4 | OC[C@H]1O[C@@H](c2c(O)cc(O)c3c2O[C@@H](c2ccc(O)c(O)c2)[C@H](O)C3)[C@H](O)[C@@H](O)[C@@H]1O [(−)-catechin-8-C-β-D-glucopyranoside] | softer, more | 10 | (4.5) | softer, more pleasant | 50 | less bitter (3.5) | softer, more pleasant | 100 | less bitter (1.0) |  | taste perception versus reference without addition ([2]; 50 ppm added, 5 persons): less bitter and less astringent; taste perception versus reference without addition [3]: milder and less astringent; astringency versus non-treated reference chocolate [4]: lower; bitterness versus non-treated reference chocolate [4]: remained unchanged; tasters who noticed a "smoothing out" effect [4]: 4 of 5; astringency versus reference of grape seed extract [5]: decrease in astringency; bitterness intensity compared to pure theobromine [6]: did not a perceive a decrease in bitterness intensity; timing of bitterness perception compared to pure theobromine [6]: delay in bitterness perception
5 | OC[C@H]1O[C@@H](c2c(O)cc3c(c2O)C[C@@H](O)[C@H](c2ccc(O)c(O)c2)O3)[C@H](O)[C@@H](O)[C@@H]1O [Cat-6-C-Glc, (−)-catechin-6-C-β-D-glucopyranoside] |  |  |  |  |  |  |  |  |  | lower maximum bitterness intensity than in the control sample, a flat bitterness profile and a “softer bitterness quality | 
6 | OC[C@H]1O[C@@H](c2c(O)cc3c(c2O)C[C@@H](O)[C@@H](c2ccc(O)c(O)c2)O3)[C@H](O)[C@@H](O)[C@@H]1O [Epicat-6-C-Glc, (−)-epicatechin-6-C-β-D-glucopyranoside] |  |  |  |  |  |  |  |  |  | lower maximum bitterness intensity than control, a flatter bitterness profile and a “softer” bitterness quality | 
7 | O=c1cc(-c2ccc(O)cc2)oc2cc(O)c([C@@H]3O[C@H](CO)[C@@H](O)[C@H](O)[C@H]3O)c(O)c12 [isovitexin, apigenin-6-C-β-D-glucopyranoside] | bitterness | 0 | 5.0 | bitterness | 0 | 5.0 | bitterness | 50 | 4.5 |  | 
8 | O=c1cc(-c2ccc(O)cc2)oc2c([C@@H]3O[C@H](CO)[C@@H](O)[C@H](O)[C@H]3O)c(O)cc(O)c12 [vitexin, apigenin-8-C-β-D-glucopyranoside] |  |  |  |  | 0 | 5.0 |  | 50 | 4.5 |  | % of panellists who detected a difference ([1]; 2 μmol/L added): 0%; taste intensity ([1]; 2 μmol/L added): 5.0
